# Measurements: US8496913B2, “Compressed chewing gum tablet” (Gumlink A/S, priority 2005, dated 2013)
# Tested on: plaque
# Conditions: in vivo
compound,measurement,value
CC(=O)[O-].CC(=O)[O-].[Zn+2] [zinc acetate],effect on plaque in hard-to-reach places,with high efficiency
